# Results as given in patent US20120135923A1, “Use of Melanocortins to Treat Dyslipidemia” (IPSEN PHARMA, S.A.S., priority 2009, published 2012).
# Entries after “also recorded” stand apart in the source; their conditions may differ.
# Experiments:
# obese Zucker rats [1] = assay: Intravenous glucose tolerance test after 7 day sc infusion; format: in vivo, rat
# Method: (§1) The dosage forms were prepared prior to the start of the experiment and used to fill the pumps under sterile conditions. Pumps were primed overnight at 37° C. in sterile saline and implanted on the starting day of the experiment.
# (§2) Three groups of eight obese male Zucker rats (350-400 g) were housed in individual cages and maintained under 12:12 hour light:dark conditions with both food (Harlan Teklad Sterilized Rodent Diet LM-485) and water available ad libitum.
# (§3) On the morning of day 1, the rats were anesthetized using chlorohydrate anesthetic and implanted with a sub-cutaneous infusion pump (Alzet® 2002) just under the skin. […] Individual body weight and food and water consumption were measured daily at 0800 hours for 7 days.
# (§4) On day 7 a right atrial cannula was implanted in the jugular vein under cholorohydrate anesthesia. The animals were fasted overnight and an intravenous (iv) glucose tolerance test was performed. Glucose (1 g/kg) was injected at time 0 and blood samples were taken via the cannula at 0, 2.5, 5, 10, 20 and 40 minutes post-injection. Plasma was collected and assayed for glucose (Glucose (Trinder) Assay; Diagnostic Chemicals Limited, Charlottetown, P.E.I., Canada; Cat #220-32) and insulin (Mercodia Rat Insulin ELISA; Mercodia, Uppsala, Sweden; ALPCO 10-1124-10) content. At the conclusion of the glucose tolerance test and additional serum samples were collected and assayed for triglycerides (Triglyceride L-Type TG H kit: Wako Diagnostics, Richmond, Va.), cholesterol (Cholesterol E assay kit: Wako Diagnostics, Richmond, Va.) and free fatty acids (Fatty Acid HR series NEFA-HR2 kit: Wako Diagnostics, Richmond, Va.).
# obese Zucker rats [2] = assay: Body weight and food intake, 7 day sc infusion; format: in vivo, rat; details: for decrease in body weight gain: day 7, vs vehicle; for decrease in food intake: end of 7 day treatment
# Method: as §1
# The Zucker rats are obese due to a spontaneous mutation in the […].
# as §2, §3
# hMC5-R [3] = biological target: T1, hMC5-R (Homo sapiens, UniProt P33032); assay: Radioligand binding assay, [125I]-NDP-α-MSH competition, CHO-K1 membranes; details: Ki hMC5-R, Table 5
# T1 construct: expressed in transfected cells; host or cells: CHO-K1
# obese Zucker rats [4] = assay: Serum triglycerides, cholesterol and free fatty acids after 7 day sc infusion; format: in vivo, rat; details: 50 and 500 nmole/kg/day sc infusion
# Method: as §1, §2, §3, §4
# hMC5-R [5] = biological target: T1, hMC5-R; assay: cyclic AMP bioassay (ECL) in CHO-K1 cells; format: cell-based
# T1 sequence (P33032 whole entry): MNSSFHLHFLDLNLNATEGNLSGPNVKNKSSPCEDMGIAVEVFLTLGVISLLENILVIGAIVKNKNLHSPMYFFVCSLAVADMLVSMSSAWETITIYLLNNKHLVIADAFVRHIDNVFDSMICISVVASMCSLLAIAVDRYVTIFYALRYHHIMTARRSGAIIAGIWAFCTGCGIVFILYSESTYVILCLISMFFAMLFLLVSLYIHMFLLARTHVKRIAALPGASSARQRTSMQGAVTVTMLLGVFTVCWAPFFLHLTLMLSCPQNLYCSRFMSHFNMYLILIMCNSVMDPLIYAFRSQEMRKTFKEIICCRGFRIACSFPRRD
smiles,measurement,setting,value
"CC(=O)N[C@@H](CCCNC(=N)N)C(=O)N[C@H]1CSSC[C@@H](C(N)=O)NC(=O)[C@H](Cc2c[nH]c3ccccc23)NC(=O)[C@H](CCCNC(=N)N)NC(=O)[C@@H](Cc2ccccc2)NC(=O)[C@H](Cc2c[nH]cn2)NC(=O)[C@@H](C)NC1=O [Compound A, Ac-Arg-c(Cys-D-Ala-His-D-Phe-Arg-Trp-Cys)-NH2]",basal fasted plasma glucose,"obese Zucker rats [1]; 500 nmole/kg/day sc infusion, fasted overnight",decreased
same,plasma glucose levels after a glucose challenge,"obese Zucker rats [1]; 50 and 500 nmole/kg/day, glucose 1 g/kg iv",decreased
same,amount of insulin required to clear the glucose challenge,"obese Zucker rats [1]; 7 day infusion, glucose tolerance test",decreased
same,decrease in body weight gain,obese Zucker rats [2]; 50 nmole/kg/day sc infusion,35 g
same,decrease in food intake,obese Zucker rats [2]; 50 nmole/kg/day sc infusion,60 g
same,decrease in body weight gain,obese Zucker rats [2]; 500 nmole/kg/day sc infusion,60 g
same,decrease in food intake,obese Zucker rats [2]; 500 nmole/kg/day sc infusion,100 g
same,Ki,hMC5-R [3],430 nM
same,serum cholesterol,obese Zucker rats [4],Dose-related decrease
same,serum free fatty acids,obese Zucker rats [4],dose-related decreases; also recorded: Decrease
same,serum triglycerides,obese Zucker rats [4],Dose-related decrease
same,EC50,hMC5-R [5],1630 nM
